# Assays:
# [1] = Acute oral toxicity in mice (Up and Down test); assay type: in vivo; conditions: CD1 and Balb/c, mouse, in vivo; oral, microemulsion
# Protocol: (§1) After verifying, through the studies indicated above, the low in vitro and in vivo toxicity and the potent trypanosomicidal activity of these molecules and following the steps of preclinical drug development, the acute oral toxicity in vivo in mice was tested. For this study, the compounds were administered orally in the same microemulsion that was used in the pharmacological study on the acute model of Chagas disease. The initial number of animals is defined by the software AOT425 Stat and also depends on if there are LD50 of compounds with similar structures. Variable numbers of animals could be used if there is some toxicity observed during the first administrations. […]. In this case, one of the animals died 10 days post-administration. The LD50 calculated by the statistical program from these experiments was 2000 mg/kg b.w., the maximal dose being used for oral administration. As a result, compound 793 has low acute toxicity in these conditions. For compound 1019, a maximum dose of 2000 mg/kg b.w. was started orally in five mice until one of the ends of the trial criteria was met. […] Throughout the test, during the 14 days, the mice were evaluated by the Irwin test and their masses were recorded. […]
# [2] = tested on: CD1 and Balb/c mice; assay: Acute oral toxicity in mice (Up and Down test); assay type: in vivo; conditions: 14 days
# Protocol: as §1
# [3] = Stability with microsomal and cytosolic fractions of rat hepatocytes; assay type: in vitro ADME
# Protocol: The qualitative analysis of the in vitro metabolization by the rat hepatocyte microsomal (MF) and cytosolic (CF) fractions of compounds 793, 1019, and 1018 was performed using chromatographic techniques (reverse phase high performance liquid chromatography and thin-layer chromatography). For this, the metabolization was monitored at different times (0, 30, 60 min and 4 h). In both MF and CF of hepatocytes treated with compounds 793 and 1019, it was observed that after one hour, more than 50% (t1/2 < 60 min) of the compounds were metabolized to more hydrophilic compounds. For these compounds, it was observed the appearance of new products of metabolization over time. […] Regarding the structure and metabolism, the heterocycles (thienyl vs. furyl) could be responsible for these different stabilities: the furyl ring would metabolize to an open cycle version, making this system more labile in front of the hepatic metabolization.
# For the determination of the stability in the different fractions, cytosolic and microsomal, rat hepatocytes protein fractions were purchased by Sigma® and used according to the previously reported protocol. […] The final concentration of the molecules in the aqueous medium was […] and prepared from stock in DMSO of 40 mM. The solutions were homogenized and incubated at 37 °C for 10 min, 30 min, 1 h, 2 h, 3 h, and 4 h (by TLC). Incubation at 37 °C was performed in a reaction volume of 1 mL containing 2.5 µL of 30 mM magnesium chloride (MgCl2); 2.5 µL of 40 mM nicotinamide […] dinucleotide phosphate (NADP^+); 5 µL of 350 mM glucose 6-phosphate (Glu6P); 5 µL of glucose 6-phosphate dehydrogenase (Glu6PD) 50 U/mL, 5 µL of the stock of 40 mM compounds and the volume of the phosphate buffer (pH = 7) was defined so that cytosolic (CF) and microsomal (MF) fraction present a final protein concentration of 0.1 mg/mL. After that, the stability of compounds 793, 1018, and 1019 in the CF and MF of rat hepatocytes was evaluated by HPLC at different times: 0, 30, and 60 min. […]
# [4] = target: triosephosphate isomerase recombinant enzyme of T. cruzi (TcTIM); conditions: cited from earlier work
# [5] = tested on: T. cruzi epimastigotes; conditions: read-out: In vitro anti-T. cruzi activity (multiple strains) (IC50); cited from earlier work
# [6] = tested on: CL Brener clone of T. cruzi; design: method as in PMID 26492824; conditions: 192 µmoles/kg/day; cited from earlier work
# [7] = tested on: T. brucei; design: method as in earlier work; conditions: read-out: In vitro anti-T. brucei activity (IC50); cited from earlier work
# [8] = tested on: Leishmania spp (cutaneous) promastigotes; design: method as in earlier work; conditions: read-out: In vitro anti-Leishmania spp (cutaneous) activity (IC50); cited from earlier work
# [9] = tested on: Leishmania infantum; design: method as in earlier work; conditions: promastigotes; read-out: In vitro anti-Leishmania infantum (visceral) activity (IC50); cited from earlier work
smiles,measurement,setting,value
O=C(/C=C/C=C/c1ccco1)/C=C/C=C/c1ccco1 [Compound 793],LD50 at 14 days,[1],2000 mg/kg
same,"Signs of acute toxicity (Irwin test, body mass)",[2],did not show signs of acute toxicity
same,In vitro metabolic stability (qualitative),"[3]; MF and CF of rat hepatocytes, up to 4 h",short half-life
same,Compound metabolized to more hydrophilic compounds,"[3]; after one hour, both MF and CF",more than 50%
same,half-life at 400 µM,"[3]; pH 7, both MF and CF of rat hepatocytes",< 1 h
same,IC50,[4],3 µM
same,IC50,[5],5 µM
same,Days Post-Infection of the First Parasitemia Peak,[6],22 days
same,Reduction in the Parasitemia Peak (%),[6],50%
same,Survival (%),[6],83%
same,IC50,[7],17 µM
same,IC50,[8],36 µM
same,IC50,[9],31 µM

# From publication PMC9863266, “Preclinical Studies and Drug Combination of Low-Cost Molecules for Chagas Disease” (Pharmaceuticals, 2022)
